Measured values reported in patent EP4711365A1 (Shanghai Hansoh Biomedical Co., Ltd., priority 2023, dated 2024).

Key:
[1] = Pharmacokinetic assay in Wistar rats, oral; conditions: rat, plasma, 30 mg/kg
[2] = molecular target: T1, human IL-17RA and IL-17A proteins (Homo sapiens, UniProt Q16552); experiment: Competitive ELISA: blocking of binding between human IL-17RA and IL-17A; conditions: coated IL-17A, IL-17RA 5 nM
T1 sequence (Q16552 24-155): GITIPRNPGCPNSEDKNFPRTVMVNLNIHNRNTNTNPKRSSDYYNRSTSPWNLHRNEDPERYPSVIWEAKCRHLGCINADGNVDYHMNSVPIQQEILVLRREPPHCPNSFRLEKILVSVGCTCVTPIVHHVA
Method: Test example 1 Assay for competitive binding effect between compounds of the present invention and human IL-17 receptor for ligand
1. Experimental objective: to quantitatively determine the blocking effect of the compound on the binding between human IL-17RA and IL-17A proteins using competitive ELISA under in vitro conditions. 2. Experimental instruments and reagents: 2.1 Instruments:
2.2 Reagents: 3. Experimental method: IL-17A at 0.0625 µg/mL was coated in a 96-well plate at 4°C overnight at 100 µL per well. The plate was washed with PBST (300 µL/well x 4), and then blocked at 24°C for 2 h by adding 300 µL of ELISA Blocker blocking buffer to each well. The plate was further washed under the same conditions. 80 µL of PBS solution containing 1% BSA and 10 µL of 10× test compound solution were added to each well and mixed uniformly, and then the mixture was incubated at room temperature for 1 hour. After that, 10 µL of IL-17RA solution was added to a final concentration of 5 nM and mixed uniformly, and then the mixture was incubated at 24°C for 1 h. The corresponding concentration and volume of DMSO solution without compounds was added to positive control wells, and 1% BSA solution without IL-17RA was added to negative control wells.
After the plate was washed four times, 100 µL of the anti-Fc tag HRP-conjugated antibody was added, and the mixture was incubated at 37°C for 1 h. After the plate was washed four times, 100 µL of TMB substrate was added to each well, and the mixture was incubated at 37°C in the dark. After colour development was completed, the reaction was terminated by adding 100 µL of stop solution to each well, and the absorbance was measured at wavelengths of 450 nm and 570 nm using a microplate reader.
• 1) Inhibition rate (%): The original data (OD450-OD570) was calculated according to the following formula to obtain the inhibition rate. Inhibition rate% = [(average value of positive control wells - value of sample wells)/(average value of positive control wells - average value of negative control wells)] × 100, where the positive control wells are wells without compounds, and the negative control wells are wells without IL-17RA protein solution. • 2) Curve fitting: Log(inhibitor) vs. response -- Variable slope (four parameters) in GraphPad Prism 8 was used for fitting equation analysis of the compound concentration and the corresponding inhibition rate, and the curve was fitted to obtain the IC50 value of the compound. The fitting calculation equation was Y = Bottom + (Top - Bottom) / (1 + 10^((LogIC50 - X) * HillSlope)).

[3] = system: Groα secretion by HT-29 cells; experiment: Inhibition of Groα secretion by HT-29 cells stimulated with IL-17A (ELISA); assay type: cell-based, Human; conditions: Homo sapiens, IL-17A 30 ng/ml, 48 hours, Groα in supernatant
Summary of the method: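 HT-29 cells (10,000/well) were cultured overnight, then given compound pre-mixed 30 min with IL-17A (final 30 ng/ml) and incubated 48 hours at 37°C. Groα in supernatant was measured by ELISA at 450 nm; inhibition relative to IL-17A-stimulated control, IC50 from four-parameter fit.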

| SMILES | AUC(0-t) [1] [ng·h/mL] | Cmax [1] [ng/mL] | Tmax [1] [h] | half-life [1] [h] | IC50 [2] [nM] | IC50 [3] [nM] |
| --- | --- | --- | --- | --- | --- | --- |
| C[C@H]1CC(F)(F)CCN1C[C@H](c1cnc(NC(=O)[C@@H](NC(=O)C2(F)CC2)[C@H]2CC[C@H](C)CC2)s1)N1CC(F)(F)CNC1=O [Example 764] | 11700 | 1090 | 4 | 4.1 | 7 | 7 |
| C[C@H]1CC[C@H]([C@H](NC(=O)C2(F)CC2)C(=O)Nc2ncc([C@@H](CN3CCC(C(F)F)CC3)N3CC(F)(F)CNC3=O)s2)CC1 [Example 770] | 11600 | 1350 | 4 | 3.5 | 7 | 3.4 |
| CCc1nonc1C(=O)N[C@H](C(=O)Nc1ncc([C@@H](COC)N2CC(F)(F)CNC2=O)s1)[C@H]1CC[C@H](C)CC1 [Example 556] | 22100 | 2390 | 2 | 2.3 | 1.8 | 4.6 |
